# Patent publication US10689354B2, “Aminoazole derivative” (Teijin Pharma Limited, priority 2015, dated 2020)
# What was measured:
# [1] = molecular target: T1, androgen receptor (AR-LBD) (Rattus norvegicus, UniProt P15207); assay: Evaluation of androgen receptor affinity (PolarScreen Androgen Receptor Competitor Assay Kit, Red; fluorescence polarization); conditions: 22° C. for 5 hours, relative to binding rate of 1 μM DHT, read-out: AR affinity (pEC50) (converted)
# T1 construct: 5 μL of 2×AR-LBD/Fluoromone AL Red Complex contained in the kit; purchased Invitrogen
# T1 sequence (P15207 651-882 limits assumed): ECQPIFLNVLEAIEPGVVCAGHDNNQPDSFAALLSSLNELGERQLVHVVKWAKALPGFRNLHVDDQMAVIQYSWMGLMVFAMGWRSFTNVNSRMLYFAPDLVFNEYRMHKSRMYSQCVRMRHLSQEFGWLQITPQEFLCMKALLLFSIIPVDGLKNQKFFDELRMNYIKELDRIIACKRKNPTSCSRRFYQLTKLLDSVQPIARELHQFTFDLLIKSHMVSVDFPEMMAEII
# Procedure, shortened: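 Duplicate wells; compound plus AR-LBD tracer complex incubated 22° C for 5 h, then FP measured. Effect compared with 1 μM DHT; 50%-effect concentration expressed as pEC50.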
# human androgen receptor = molecular target: T2, human androgen receptor (Homo sapiens, UniProt P10275); assay: Reporter assay of an androgen receptor responsive sequence (luciferase, transiently transfected HEK293 cells); format: cell-based; conditions: 24 hours incubation, relative to activity of 100 nM DHT, read-out: AR transcriptive activity (pEC50) (converted)
# T2 construct: expressed in transfected cells; host or cells: HEK293
# T2 sequence (P10275 1-920): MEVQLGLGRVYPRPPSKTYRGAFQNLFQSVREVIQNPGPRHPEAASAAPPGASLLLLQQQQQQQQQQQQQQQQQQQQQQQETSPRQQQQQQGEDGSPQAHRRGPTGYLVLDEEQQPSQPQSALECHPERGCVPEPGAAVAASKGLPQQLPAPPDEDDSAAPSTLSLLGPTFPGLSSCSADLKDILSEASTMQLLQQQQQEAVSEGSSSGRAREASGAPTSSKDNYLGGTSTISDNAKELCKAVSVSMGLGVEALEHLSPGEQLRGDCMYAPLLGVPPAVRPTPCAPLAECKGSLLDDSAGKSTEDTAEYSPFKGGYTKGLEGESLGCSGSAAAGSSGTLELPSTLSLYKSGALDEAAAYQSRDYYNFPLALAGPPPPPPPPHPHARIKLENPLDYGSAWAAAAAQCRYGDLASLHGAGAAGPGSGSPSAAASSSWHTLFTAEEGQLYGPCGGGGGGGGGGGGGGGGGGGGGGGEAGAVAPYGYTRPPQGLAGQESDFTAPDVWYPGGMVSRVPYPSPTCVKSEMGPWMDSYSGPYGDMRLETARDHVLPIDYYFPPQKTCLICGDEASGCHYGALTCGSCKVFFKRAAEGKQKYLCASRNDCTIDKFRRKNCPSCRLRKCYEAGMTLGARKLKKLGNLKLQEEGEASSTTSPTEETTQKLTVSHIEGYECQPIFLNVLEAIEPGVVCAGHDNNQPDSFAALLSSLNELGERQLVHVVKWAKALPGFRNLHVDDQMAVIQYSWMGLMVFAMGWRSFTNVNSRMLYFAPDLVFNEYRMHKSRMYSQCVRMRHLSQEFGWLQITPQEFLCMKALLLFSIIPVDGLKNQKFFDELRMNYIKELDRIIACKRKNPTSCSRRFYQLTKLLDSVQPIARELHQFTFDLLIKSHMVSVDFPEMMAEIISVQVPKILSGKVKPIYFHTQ
# Procedure, shortened: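 Agonism scored as pEC50, fitted by 4-parameter curve against the response to 100 nM DHT, from dual-luciferase readout after 24 h compound treatment. Cells were HEK293 co-transfected (3 h) with human AR expression vector, androgen-responsive firefly reporter and Renilla control, in charcoal-stripped serum.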
EC50 [1],EC50 (human androgen receptor),SMILES
31.6 nM,100 nM,"Cc1sc(N(Cc2cccc(OC(F)(F)F)c2)c2ccc(C#N)cc2)nc1C(=O)NS(C)(=O)=O [Compound 343, 2-[4-cyano-N-[[3-(trifluoromethoxy)phenyl]methyl]anilino]-5-methyl-N-methylsulfonyl-thiazole-4-carboxamide]"
31.6 nM,31.6 nM,"Cc1sc(N(Cc2ccc(C(F)(F)F)cc2)c2ccc(C#N)cc2)nc1C(=O)NS(C)(=O)=O [Compound 46, 2-[4-cyano-N-[[4-(trifluoromethyl)phenyl]methyl]anilino]-5-methyl-N-methylsulfonyl-thiazole-4-carboxamide]"
126 nM,158 nM,"Cc1sc(N(Cc2ccc3nsnc3c2)c2ccc(C#N)cc2)nc1C(=O)NS(C)(=O)=O [Compound 114, 2-[N-(2,1,3-benzothiadiazole-5-ylmethyl)-4-cyano-anilino]-5-methyl-N-methylsulfonyl-thiazole-4-carboxamide]"
25.1 nM,158 nM,"Cc1sc(N(Cc2cc(F)cc(C(F)(F)F)c2)c2ccc(C#N)cc2)nc1C(=O)NS(C)(=O)=O [Compound 416, 2-[4-cyano-N-[[3-fluoro-5-(trifluoromethyl)phenyl]methyl]anilino]-5-methyl-N-methylsulfonyl-thiazole-4-carboxamide]"
25.1 nM,20 nM,"CS(=O)(=O)NC(=O)c1nc(N(Cc2ccc(Cl)cc2)c2ccc(C#N)cc2)sc1Cl [Example 269, 5-chloro-2-[N-[(4-chlorophenyl)methyl]-4-cyano-anilino]-N-methylsulfonyl-thiazole-4-carboxamide]"
31.6 nM,501 nM,"Cc1sc(N(Cc2ccc(Cl)cc2OC(F)F)c2ccc(C#N)cc2)nc1C(=O)NS(C)(=O)=O [Example 193, 2-[N-[[4-chloro-2-(difluoromethoxy)phenyl]methyl]-4-cyano-anilino]-5-methyl-N-methylsulfonyl-thiazole-4-carboxamide]"
50.1 nM,126 nM,"CC(C)=CCN(c1ccc(C#N)cc1)c1nc(C(=O)NS(C)(=O)=O)c(C)s1 [Compound 439, 2-[4-cyano-N-(3-methylbut-2-enyl)anilino]-5-methyl-N-methylsulfonyl-thiazole-4-carboxamide]"
63.1 nM,126 nM,"Cc1sc(N(Cc2ccccc2)c2ccc(C#N)cc2)nc1C(=O)NS(=O)(=O)Cc1cccnc1 [Compound 397, 2-(N-benzyl-4-cyano-anilino)-5-methyl-N-(3-pyridylmethylsulfonyl)thiazole-4-carboxamide]"
25.1 nM,20 nM,"Cc1sc(N(Cc2ccc(F)cc2)c2ccc(C#N)cc2)nc1C(=O)NS(=O)(=O)Cc1cccnc1 [Compound 122, 2-[4-cyano-N-[(4-fluorophenyl)methyl]anilino]-5-methyl-N-(3-pyridylmethylsulfonyl)thiazole-4-carboxamide]"
63.1 nM,50.1 nM,"CS(=O)(=O)NC(=O)c1nc(N(Cc2ccc(OC(F)F)cc2)c2ccc(C#N)cc2)sc1Cl [Example 277, 5-chloro-2-[4-cyano-N-[[4-(difluoromethoxy)phenyl]methyl]anilino]-N-methylsulfonyl-thiazole-4-carboxamide]"
251 nM,> 10000 nM,"Cc1oc(N(Cc2cccc(C#N)c2)c2ccc(C#N)cc2)nc1C(=O)NS(C)(=O)=O [Compound 617, 2-[4-cyano-N-[(3-cyanophenyl)methyl]anilino]-5-methyl-N-methylsulfonyl-oxazole-4-carboxamide]"
316 nM,3980 nM,"Cc1sc(N(Cc2ccc(-c3ccc(F)cn3)nc2)c2ccc(C#N)cc2)nc1C(=O)NS(C)(=O)=O [Compound 596, 2-[4-cyano-N-[[6-(5-fluoro-2-pyridyl)-3-pyridyl]methyl]anilino]-5-methyl-N-methylsulfonyl-thiazole-4-carboxamide]"
79.4 nM,794 nM,"Cc1sc(N(CCC(C)C)c2ccc(C#N)cc2)nc1C(=O)NS(C)(=O)=O [Compound 66, 2-(4-cyano-N-isopentyl-anilino)-5-methyl-N-methylsulfonyl-thiazole-4-carboxamide]"
63.1 nM,501 nM,"Cc1sc(N(Cc2ccc(OCC(F)F)cc2)c2ccc(C#N)cc2)nc1C(=O)NS(C)(=O)=O [Compound 577, 2-[4-cyano-N-[[4-(2,2-difluoroethoxy)phenyl]methyl]anilino]-5-methyl-N-methylsulfonyl-thiazole-4-carboxamide]"
50.1 nM,39.8 nM,"CS(=O)(=O)NC(=O)c1nc(N(Cc2ccc(F)cc2)c2ccc(C#N)cc2)sc1Cl [Example 262, 5-chloro-2-[4-cyano-N-[(4-fluorophenyl)methyl]anilino]-N-methylsulfonyl-thiazole-4-carboxamide]"
126 nM,5010 nM,"CCS(=O)(=O)NC(=O)c1nc(N(CCC2CCCCC2)Cc2ccc(Cl)cc2)sc1C [Compound 729, 2-[(4-chlorophenyl)methyl-(2-cyclohexylethyl)amino]-N-ethylsulfonyl-5-methyl-thiazole-4-carboxamide]"
100 nM,> 10000 nM,"Cc1sc(N(CCC2CCCC2)Cc2ccccc2)nc1C(=O)NS(C)(=O)=O [Compound 683, 2-[benzyl(2-cyclopentylethyl)amino]-5-methyl-N-methylsulfonyl-thiazole-4-carboxamide]"
63.1 nM,1260 nM,"COCCCS(=O)(=O)NC(=O)c1nc(N(Cc2ccc(F)cc2Cl)c2ccc(C#N)cc2)sc1C [Example 192, 2-[N-[(2-chloro-4-fluoro-phenyl)methyl]-4-cyano-anilino]-N-(3-methoxypropylsulfonyl)-5-methyl-thiazole-4-carboxamide]"
20 nM,39.8 nM,"Cc1sc(N(Cc2ccc(OC(F)F)c(Cl)c2)c2ccc(C#N)cc2)nc1C(=O)NS(C)(=O)=O [Compound 536, 2-[N-[[3-chloro-4-(difluoromethoxy)phenyl]methyl]-4-cyano-anilino]-5-methyl-N-methylsulfonyl-thiazole-4-carboxamide]"
63.1 nM,1580 nM,"Cc1sc(N(CCOc2ccccc2)c2ccc(C#N)cc2)nc1C(=O)NS(C)(=O)=O [Compound 20, 2-[4-cyano-N-(2-phenoxyethyl)anilino]-5-methyl-N-methylsulfonyl-thiazole-4-carboxamide]"
63.1 nM,1260 nM,"Cc1oc(N(CCc2ccc(Cl)cc2)Cc2ccc(Cl)cn2)nc1C(=O)NS(C)(=O)=O [Compound 549, 2-[2-(4-chlorophenyl)ethyl-[(5-chloro-2-pyridyl)methyl]amino]-5-methyl-N-methylsulfonyl-oxazole-4-carboxamide]"
20 nM,316 nM,"CSc1cccc(CN(c2ccc(C#N)cc2)c2nc(C(=O)NS(C)(=O)=O)c(C)s2)c1 [Compound 431, 2-[4-cyano-N-[(3-methylsulfanylphenyl)methyl]anilino]-5-methyl-N-methylsulfonyl-thiazole-4-carboxamide]"
398 nM,631 nM,"Cc1sc(N(Cc2ccccc2)c2ccc(C(F)(F)F)nc2)nc1C(=O)NS(C)(=O)=O [Example 223, 2-[benzyl-[6-(trifluoromethyl)-3-pyridyl]amino]-5-methyl-N-methylsulfonyl-thiazole-4-carboxamide]"
